Activity calls are given as the source filed them. The rule behind the calls is not given here.
Legend:
[1] = target: T1, Peroxisome proliferator-activated receptor alpha (Homo sapiens) (UniProt Q07869); assay: Agonist activity at PPAR-alpha (unknown origin) expressed in CV-1 cells co-transfected with tk-PPRE-luciferase vector at 10 uM after 24 hrs by transactivation assay relative to GW7647; assay type: cell-based
T1 sequence (whole entry): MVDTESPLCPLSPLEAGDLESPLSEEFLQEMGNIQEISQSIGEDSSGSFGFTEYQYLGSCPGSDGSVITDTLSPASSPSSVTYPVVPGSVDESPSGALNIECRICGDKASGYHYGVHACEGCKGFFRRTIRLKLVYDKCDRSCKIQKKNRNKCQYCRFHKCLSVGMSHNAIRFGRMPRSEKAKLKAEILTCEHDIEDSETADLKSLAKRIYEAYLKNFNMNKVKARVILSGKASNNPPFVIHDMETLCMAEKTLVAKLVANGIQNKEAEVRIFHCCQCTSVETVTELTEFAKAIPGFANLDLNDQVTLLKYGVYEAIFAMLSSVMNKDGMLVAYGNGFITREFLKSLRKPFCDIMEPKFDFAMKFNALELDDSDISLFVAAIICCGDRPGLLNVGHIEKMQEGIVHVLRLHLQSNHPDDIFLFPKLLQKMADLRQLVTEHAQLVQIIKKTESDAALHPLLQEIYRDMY

[2] = target: T2, Peroxisome proliferator-activated receptor gamma (Homo sapiens) (UniProt P37231); assay: Agonist activity at PPAR-gamma (unknown origin) expressed in CV-1 cells co-transfected with tk-PPRE-luciferase vector at 10 uM after 24 hrs by transactivation assay relative to rosiglitazone; assay type: cell-based
T2 sequence (whole entry): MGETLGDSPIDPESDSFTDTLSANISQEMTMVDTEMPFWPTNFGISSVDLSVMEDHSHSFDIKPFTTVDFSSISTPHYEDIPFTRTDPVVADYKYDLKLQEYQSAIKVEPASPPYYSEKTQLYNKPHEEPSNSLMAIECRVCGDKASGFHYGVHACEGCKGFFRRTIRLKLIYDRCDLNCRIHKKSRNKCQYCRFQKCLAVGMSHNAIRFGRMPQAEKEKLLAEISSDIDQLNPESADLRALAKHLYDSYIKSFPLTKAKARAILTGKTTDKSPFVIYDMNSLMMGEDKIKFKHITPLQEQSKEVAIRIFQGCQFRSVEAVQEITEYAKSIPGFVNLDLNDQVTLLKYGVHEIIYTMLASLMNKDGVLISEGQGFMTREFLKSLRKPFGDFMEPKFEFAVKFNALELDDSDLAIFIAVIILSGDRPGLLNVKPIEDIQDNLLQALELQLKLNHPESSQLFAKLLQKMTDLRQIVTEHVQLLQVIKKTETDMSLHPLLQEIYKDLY

[3] = target: T3, Peroxisome proliferator-activated receptor delta (Homo sapiens) (UniProt Q03181); assay: Agonist activity at PPAR-delta (unknown origin) expressed in HEK293t cells co-transfected with tk-PPRE-luciferase vector at 10 uM after 24 hrs by transactivation assay relative to GW0742; assay type: cell-based; conditions: HEK-293T
T3 sequence (whole entry): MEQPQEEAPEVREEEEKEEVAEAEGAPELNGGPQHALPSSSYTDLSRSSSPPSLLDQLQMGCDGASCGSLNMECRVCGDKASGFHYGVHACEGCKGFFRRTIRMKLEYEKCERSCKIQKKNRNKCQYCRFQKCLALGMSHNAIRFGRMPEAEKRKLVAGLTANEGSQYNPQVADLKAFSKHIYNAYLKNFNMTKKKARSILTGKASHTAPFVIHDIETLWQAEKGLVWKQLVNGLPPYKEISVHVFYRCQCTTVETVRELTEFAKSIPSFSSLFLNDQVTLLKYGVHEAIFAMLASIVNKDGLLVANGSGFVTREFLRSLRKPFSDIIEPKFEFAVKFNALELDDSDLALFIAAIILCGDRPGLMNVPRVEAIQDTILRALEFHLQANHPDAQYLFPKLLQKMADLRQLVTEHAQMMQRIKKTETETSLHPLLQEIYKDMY

[4] = Retention time of the compound by HPLC analysis; assay type: physicochemical

## Cc1ccc(COc2cccc(OCCOc3ccc4[nH]cc(CC(=O)O)c4c3)c2)cc1
[1]
  Emax: 66.7%
[2]
  Emax: 114%
[3]
  Emax: 76.6%
[4]
  Retention_time: 7.375 min

## CC(C)=CCn1cc(CC(=O)O)c2cc(OCCCOc3cccc(OCc4ccc(Cl)cc4)c3)ccc21
[1]
  Emax: 37.9%
[2]
  Emax: 120%
[3]
  Emax: 65.2%
[4]
  Retention_time: 30.169 min

## Cc1ccc(COc2ccccc2OCCCOc2ccc3[nH]cc(CC(=O)O)c3c2)cc1
[1]
  Emax: 41.2%
[2]
  Emax: 73.4%
[3]
  Emax: 35.2%
[4]
  Retention_time: 7.257 min

## O=C(O)Cc1cn(Cc2ccccc2)c2ccc(OCCCOc3cccc(OCc4ccc(Cl)cc4Cl)c3)cc12
[1]
  Emax: 18.7%
[2]
  Emax: 102%
[3]
  Emax: 44.2%

## O=C(O)Cc1cn(Cc2ccccc2)c2ccc(OCCCOc3cccc(Oc4ccc(C(F)(F)F)cc4)c3)cc12
[1]
  Emax: 25.9%
[2]
  Emax: 85.2%
[3]
  Emax: 53.2%
[4]
  Retention_time: 25.922 min

## O=C(O)Cc1cn(Cc2ccccc2)c2ccc(OCCOc3cccc(Cl)c3)cc12
[1]
  Emax: 15.3%
[2]
  Emax: 23.6%
[3]
  Emax: 13.7%
[4]
  Retention_time: 8.911 min

## Cc1cccc(OCCOc2ccc3c(c2)c(CC(=O)O)cn3Cc2ccccc2)c1
[1]
  Emax: 10.9%
[2]
  Emax: 36.5%
[3]
  Emax: 13.2%
[4]
  Retention_time: 8.19 min

## C=CCn1cc(CC(=O)O)c2cc(OCCCOc3cccc(OCc4ccc(Cl)cc4)c3)ccc21
[1]
  Emax: 35.8%
[2]
  Emax: 104%
[3]
  Emax: 71.1%
[4]
  Retention_time: 15.057 min

## O=C(O)Cc1c[nH]c2ccc(OCCOc3cccc(Cl)c3)cc12
[1]
  Emax: 15.5%
[2]
  Emax: 16.8%
[3]
  Emax: 16.2%
[4]
  Retention_time: 4.608 min

## O=C(O)Cc1c[nH]c2ccc(OCCCOc3cccc(Oc4ccccc4)c3)cc12
[1]
  Emax: 45.4%
[2]
  Emax: 92.5%
[3]
  Emax: 23.8%
[4]
  Retention_time: 7.305 min

## Cc1ccc(COc2cccc(OCCCOc3ccc4c(c3)c(CC(=O)O)cn4Cc3ccccc3)c2)cc1
[1]
  Emax: 31.4%
[2]
  Emax: 109%
[3]
  Emax: 83%
[4]
  Retention_time: 21.719 min

## O=C(O)Cc1c[nH]c2ccc(OCCOc3cccc(OCc4ccc(C(F)(F)F)cc4)c3)cc12
[1]
  Emax: 43%
[2]
  Emax: 103%
[3]
  Emax: 83%
[4]
  Retention_time: 7.193 min

## Cc1ccc(COc2ccc(OCCCOc3ccc4c(c3)c(CC(=O)O)cn4Cc3ccccc3)cc2)cc1
[1]
  Emax: 18.9%
[2]
  Emax: 92.6%
[3]
  Emax: 93.6%
[4]
  Retention_time: 21.33 min

## O=C(O)Cc1cn(Cc2ccccc2)c2ccc(OCCOc3cccc(OCc4ccc(Cl)cc4)c3)cc12
[1]
  Emax: 40.7%
[2]
  Emax: 81.2%
[3]
  Emax: 106%
[4]
  Retention_time: 17.1 min

## COc1ccc(Oc2cccc(OCCCOc3ccc4c(c3)c(CC(=O)O)cn4Cc3ccccc3)c2)cc1
[1]
  Emax: 22.3%
[2]
  Emax: 71.1%
[3]
  Emax: 59.5%
[4]
  Retention_time: 7.257 min

## O=C(O)Cc1c[nH]c2ccc(OCCCOc3ccc(OCc4ccc(Cl)cc4)cc3)cc12
[1]
  Emax: 18.9%
[2]
  Emax: 99.4%
[3]
  Emax: 89.5%
[4]
  Retention_time: 9.166 min

## O=C(O)Cc1cn(Cc2ccccc2)c2ccc(OCCCOc3cccc(OCc4ccc(C(F)(F)F)cc4)c3)cc12
[1]
  Emax: 12.2%
[2]
  Emax: 77.9%
[3]
  Emax: 87.4%
[4]
  Retention_time: 24.08 min

## O=C(O)Cc1cn(Cc2ccccc2)c2ccc(OCCCOc3cccc(OCc4ccc(F)cc4)c3)cc12
[1]
  Emax: 16.5%
[2]
  Emax: 77.7%
[3]
  Emax: 59.5%
[4]
  Retention_time: 16.467 min

## Cc1ccc(Oc2cccc(OCCCOc3ccc4[nH]cc(CC(=O)O)c4c3)c2)cc1
[1]
  Emax: 60.6%
[2]
  Emax: 145%
[3]
  Emax: 40.6%
[4]
  Retention_time: 9.409 min

## Cc1ccc(COc2ccccc2OCCCOc2ccc3c(CC(=O)O)c[nH]c3c2)cc1
[1]
  Emax: 10.9%
[2]
  Emax: 19.2%
[3]
  Emax: 64.6%
[4]
  Retention_time: 7.422 min

## O=C(O)Cc1cn(Cc2ccccc2)c2ccc(OCCOc3cccc(OCc4ccc(C(F)(F)F)cc4)c3)cc12
[1]
  Emax: 23.4%
[2]
  Emax: 85.7%
[3]
  Emax: 73.9%
[4]
  Retention_time: 18.375 min

## O=C(O)Cc1c[nH]c2ccc(OCCCOc3ccccc3OCc3ccc(Cl)cc3)cc12
[1]
  Emax: 21%
[2]
  Emax: 16.1%
[3]
  Emax: inactive
[4]
  Retention_time: 7.547 min

## O=C(O)Cc1cn(Cc2ccccc2)c2ccc(OCCCOc3cccc(Oc4ccccc4)c3)cc12
[1]
  Emax: 13.9%
[2]
  Emax: 71.2%
[3]
  Emax: 46.3%
[4]
  Retention_time: 18.216 min

## Cc1ccc(COc2cccc(OCCOc3ccc4c(c3)c(CC(=O)O)cn4Cc3ccccc3)c2)cc1
[1]
  Emax: 38.5%
[2]
  Emax: 101%
[3]
  Emax: 87.2%
[4]
  Retention_time: 16.602 min

## O=C(O)Cc1cn(Cc2ccccc2)c2ccc(OCCCOc3ccc(OCc4ccc(Cl)cc4)cc3)cc12
[1]
  Emax: 19%
[2]
  Emax: 83.7%
[3]
  Emax: 94.7%
[4]
  Retention_time: 22.989 min

## Cc1ccc(COc2ccccc2OCCCOc2ccc3c(c2)c(CC(=O)O)cn3Cc2ccccc2)cc1
[1]
  Emax: 26.7%
[2]
  Emax: 75.1%
[3]
  Emax: 68.9%
[4]
  Retention_time: 14.49 min

## O=C(O)Cc1c[nH]c2ccc(OCCCOc3cccc(OCc4ccc(Cl)cc4Cl)c3)cc12
[1]
  Emax: 59.5%
[2]
  Emax: 102%
[3]
  Emax: 85.3%

## O=C(O)Cc1c[nH]c2ccc(OCCOc3cccc(OCc4ccc(Cl)cc4)c3)cc12
[1]
  Emax: 42.8%
[2]
  Emax: 79.6%
[3]
  Emax: 79%
[4]
  Retention_time: 7.623 min

## Cn1cc(CC(=O)O)c2cc(OCCCOc3cccc(OCc4ccc(Cl)cc4)c3)ccc21
[1]
  Emax: 37.5%
[2]
  Emax: 110%
[3]
  Emax: 70.8%
[4]
  Retention_time: 13.52 min

## O=C(O)Cc1c[nH]c2ccc(OCCCOc3cccc(OCc4ccc(Cl)cc4)c3)cc12
[1]
  Emax: 56.7%
[2]
  Emax: 104%
[3]
  Emax: 63.7%
[4]
  Retention_time: 9.64 min

## CCCn1cc(CC(=O)O)c2cc(OCCCOc3cccc(OCc4ccc(Cl)cc4)c3)ccc21
[1]
  Emax: 66.8%
[2]
  Emax: 110%
[3]
  Emax: 77.1%
[4]
  Retention_time: 21.212 min

## O=C(O)Cc1c[nH]c2ccc(OCCCOc3cccc(OCc4ccccc4)c3)cc12
[1]
  Emax: 22.6%
[2]
  Emax: 73.1%
[3]
  Emax: 21.7%
[4]
  Retention_time: 6.379 min

## O=C(O)Cc1cn(Cc2ccccc2)c2ccc(OCCCOc3ccccc3OCc3ccc(Cl)cc3)cc12
[1]
  Emax: 27.1%
[2]
  Emax: 89.2%
[3]
  Emax: 74.9%
[4]
  Retention_time: 15.313 min

## O=C(O)Cc1c[nH]c2ccc(OCCCOc3cccc(OCc4ccc(C(F)(F)F)cc4)c3)cc12
[1]
  Emax: 28.2%
[2]
  Emax: 100%
[3]
  Emax: 71.9%
[4]
  Retention_time: 9.707 min

## O=C(O)Cc1c[nH]c2ccc(OCCCOc3cccc(Oc4ccc(Cl)cc4)c3)cc12
[1]
  Emax: 59.2%
[2]
  Emax: 106%
[3]
  Emax: 37.9%
[4]
  Retention_time: 9.322 min

## O=C(O)Cc1cn(Cc2ccccc2)c2ccc(OCCCOc3cccc(OCc4ccccc4)c3)cc12
[1]
  Emax: 30.4%
[2]
  Emax: 94.6%
[3]
  Emax: 95.5%
[4]
  Retention_time: 14.199 min

## COc1ccc(Oc2cccc(OCCCOc3ccc4[nH]cc(CC(=O)O)c4c3)c2)cc1
[1]
  Emax: 45%
[2]
  Emax: 89.7%
[3]
  Emax: 25.6%
[4]
  Retention_time: 6.53 min

## COc1ccc(COc2cccc(OCCOc3ccc4[nH]cc(CC(=O)O)c4c3)c2)cc1
[1]
  Emax: 87.5%
[2]
  Emax: 93.4%
[3]
  Emax: 70%
[4]
  Retention_time: 5.651 min

From ChEMBL document CHEMBL3596146, “Design, synthesis, and biological evaluation of a series of alkoxy-3-indolylacetic acids as peroxisome proliferator-activated receptor γ/δ agonists” (Bioorg Med Chem, 2015)
